Test results as given in ChEMBL document CHEMBL3301562, “MMV Box screening against Plasmodium falciparum protein kinases and aminoacyl tRNA synthetases”.

Legend:
Assay type in all cases: functional
Lysine--tRNA ligase = Lysine--tRNA ligase (Plasmodium falciparum (isolate 3D7), UniProt Q8IDJ8); assay: MMV: KRS recombinant Plasmodium falciparum Lysyl-tRNA-synthetase, assay with yeast tRNA, ATP, and lysine and 3 uM MMV malaria box compound, assay read out with kinase glo as % inhibition.
Proline--tRNA ligase = biological target: T1, Proline--tRNA ligase (Plasmodium falciparum (isolate 3D7), UniProt Q8I5R7); assay: MMV: ProRS recombinant Plasmodium falciparum Prolyl-tRNA-synthetase, assay with yeast tRNA, ATP, and proline and 3 uM MMV malaria box compound, assay read out with kinase glo as % inhibition.
T1 sequence (Q8I5R7 whole entry): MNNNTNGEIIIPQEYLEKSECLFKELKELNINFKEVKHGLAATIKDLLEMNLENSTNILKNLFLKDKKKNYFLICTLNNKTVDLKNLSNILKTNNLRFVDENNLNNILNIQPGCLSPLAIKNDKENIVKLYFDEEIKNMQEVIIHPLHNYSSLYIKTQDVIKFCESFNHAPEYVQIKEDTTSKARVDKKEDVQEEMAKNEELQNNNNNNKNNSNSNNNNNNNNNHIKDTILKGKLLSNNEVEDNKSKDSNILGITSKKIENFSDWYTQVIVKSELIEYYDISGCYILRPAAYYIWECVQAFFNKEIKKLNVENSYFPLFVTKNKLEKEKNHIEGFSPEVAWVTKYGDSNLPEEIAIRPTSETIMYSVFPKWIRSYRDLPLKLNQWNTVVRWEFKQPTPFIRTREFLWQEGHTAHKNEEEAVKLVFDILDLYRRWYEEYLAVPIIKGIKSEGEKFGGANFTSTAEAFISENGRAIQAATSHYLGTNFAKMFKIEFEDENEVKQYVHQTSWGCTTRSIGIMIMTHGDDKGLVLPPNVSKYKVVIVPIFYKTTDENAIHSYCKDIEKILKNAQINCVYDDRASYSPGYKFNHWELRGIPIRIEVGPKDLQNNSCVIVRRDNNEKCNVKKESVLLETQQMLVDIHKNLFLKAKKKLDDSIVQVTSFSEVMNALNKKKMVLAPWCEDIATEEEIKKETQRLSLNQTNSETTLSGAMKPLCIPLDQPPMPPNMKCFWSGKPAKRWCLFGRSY

[1] = biological target: T2, Putative uncharacterized protein pk7 (Plasmodium falciparum, UniProt O96214); assay: Final concentrations were 1 uM ATP, 2 mM DTT, 20 mM MgCl2, 2 mM MnCl2, 0.01% BSA, and 6 ug/ml PK7, in a buffer of 20 mM Tris-HCl (pH 7.5). The enzyme itself was the only substrate present (since autophosphorylation occurs); 100 uM 1NA-PP1 was used as a control inhibitor. Incubation time was 3 hours.
T2 sequence (O96214 whole entry): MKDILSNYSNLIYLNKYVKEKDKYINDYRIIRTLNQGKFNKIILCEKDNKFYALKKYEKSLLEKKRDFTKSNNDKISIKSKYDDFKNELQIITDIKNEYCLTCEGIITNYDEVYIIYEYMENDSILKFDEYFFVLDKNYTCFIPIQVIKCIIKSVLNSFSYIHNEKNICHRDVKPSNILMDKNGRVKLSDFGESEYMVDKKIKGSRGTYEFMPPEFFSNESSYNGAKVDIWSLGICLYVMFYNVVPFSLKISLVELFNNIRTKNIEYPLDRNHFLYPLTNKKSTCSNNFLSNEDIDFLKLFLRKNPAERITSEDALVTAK

[2] = biological target: T3, Calcium-dependent protein kinase 4 (Plasmodium falciparum (isolate 3D7), UniProt Q8IBS5); assay: MMV: CDPK4 Protein kinase inhibition assay using recombinant PfCDPK4, syntide2 peptide substrate, ATP and KinaseGlo to measure % inhibition at 1 uM MMV box compound.
T3 sequence (Q8IBS5 whole entry): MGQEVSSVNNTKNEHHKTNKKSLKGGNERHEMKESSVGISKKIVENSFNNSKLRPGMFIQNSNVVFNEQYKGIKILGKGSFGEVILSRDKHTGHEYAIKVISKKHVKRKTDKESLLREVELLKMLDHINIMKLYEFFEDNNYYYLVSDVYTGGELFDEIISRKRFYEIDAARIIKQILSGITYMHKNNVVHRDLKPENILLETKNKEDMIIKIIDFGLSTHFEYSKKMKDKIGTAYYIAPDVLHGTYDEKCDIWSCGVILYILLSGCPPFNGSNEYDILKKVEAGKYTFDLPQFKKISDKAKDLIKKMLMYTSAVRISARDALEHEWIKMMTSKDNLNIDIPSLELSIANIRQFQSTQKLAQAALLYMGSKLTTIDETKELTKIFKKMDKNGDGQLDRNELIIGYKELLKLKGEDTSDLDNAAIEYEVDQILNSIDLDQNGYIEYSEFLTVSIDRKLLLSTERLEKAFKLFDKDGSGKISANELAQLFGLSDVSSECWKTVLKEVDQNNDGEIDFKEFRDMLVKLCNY

[3] = biological target: Calcium-dependent protein kinase 1 (Plasmodium falciparum, UniProt P62344); assay: MMV: CDPK1 Protein kinase inhibition assay using recombinant PfCDPK1, syntide 2 peptide substrate, ATP and KinaseGlo to measure % inhibition at 1 uM MMV box compound.
Calcium-dependent protein kinase 1, sequence (P62344 whole entry): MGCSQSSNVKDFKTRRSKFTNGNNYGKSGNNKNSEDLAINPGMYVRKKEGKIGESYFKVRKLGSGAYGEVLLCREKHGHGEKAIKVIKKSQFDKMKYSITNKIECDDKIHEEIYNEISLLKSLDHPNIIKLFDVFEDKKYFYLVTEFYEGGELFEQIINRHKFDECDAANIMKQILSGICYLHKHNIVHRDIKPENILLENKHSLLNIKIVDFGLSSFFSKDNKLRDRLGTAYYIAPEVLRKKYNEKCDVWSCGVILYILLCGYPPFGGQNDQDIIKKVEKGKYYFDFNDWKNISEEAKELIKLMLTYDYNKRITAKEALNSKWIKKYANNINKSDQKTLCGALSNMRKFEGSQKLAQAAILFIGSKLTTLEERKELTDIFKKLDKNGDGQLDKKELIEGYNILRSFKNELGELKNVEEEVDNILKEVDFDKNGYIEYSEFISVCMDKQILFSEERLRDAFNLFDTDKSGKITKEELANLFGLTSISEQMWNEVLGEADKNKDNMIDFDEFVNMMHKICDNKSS

[4] = biological target: T4, Mitogen-activated protein kinase (Plasmodium falciparum, UniProt Q25917); assay: Final concentrations were 1 uM ATP, 0.5 mM DTT, 1 mM MgCl2, 0.5 mg/mL BSA, and 10 ug/ml MAP2 in a buffer of 50 mM HEPES (pH 7.0). 0.5 mg/mL histone III-S served as the substrate (13); 100 uM AMP-PNP, an ATP analog, was used as a control inhibitor. Incubation time was 4 hours.
T4 sequence (Q25917 whole entry): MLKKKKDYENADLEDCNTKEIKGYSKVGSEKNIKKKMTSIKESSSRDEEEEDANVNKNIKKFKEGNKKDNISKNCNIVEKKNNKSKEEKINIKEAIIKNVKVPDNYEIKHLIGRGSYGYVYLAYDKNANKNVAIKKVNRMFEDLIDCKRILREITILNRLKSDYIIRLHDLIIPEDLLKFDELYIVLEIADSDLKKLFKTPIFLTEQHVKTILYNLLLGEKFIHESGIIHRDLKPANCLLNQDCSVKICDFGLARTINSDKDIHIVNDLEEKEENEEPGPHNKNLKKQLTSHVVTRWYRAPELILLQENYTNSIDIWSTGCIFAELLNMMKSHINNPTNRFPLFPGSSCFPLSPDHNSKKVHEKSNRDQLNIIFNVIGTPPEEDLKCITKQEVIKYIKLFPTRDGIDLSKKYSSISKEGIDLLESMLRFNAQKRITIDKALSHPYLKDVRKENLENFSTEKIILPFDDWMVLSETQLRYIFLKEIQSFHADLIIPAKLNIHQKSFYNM

[5] = biological target: T5, Cdk-related protein kinase 6 (Plasmodium falciparum, UniProt O77239); assay: Final concentrations were 1.5 uM ATP, 5 mM MnCl2, and 15 ug/ml PK6 in a buffer of 100 mM Tris-HCl (pH 7.5). 50 ug/mL MBP was provided as the substrate; 10 uM staurosporine was used as a control inhibitor. Incubation time was 3 hours and 40 minutes.The catalytic activity of each kinase was considered proportional to ATP consumed, as determined from measurements of residual [ATP] with the luciferase-based reagent Kinase-Glo (Promega) following incubation. Luminescence (proportional to residual [ATP]) was measured on the plate readers FLx800 (BioTek Instruments, Winooski, VT, USA) and MicroBeta2.
T5 sequence (O77239 whole entry): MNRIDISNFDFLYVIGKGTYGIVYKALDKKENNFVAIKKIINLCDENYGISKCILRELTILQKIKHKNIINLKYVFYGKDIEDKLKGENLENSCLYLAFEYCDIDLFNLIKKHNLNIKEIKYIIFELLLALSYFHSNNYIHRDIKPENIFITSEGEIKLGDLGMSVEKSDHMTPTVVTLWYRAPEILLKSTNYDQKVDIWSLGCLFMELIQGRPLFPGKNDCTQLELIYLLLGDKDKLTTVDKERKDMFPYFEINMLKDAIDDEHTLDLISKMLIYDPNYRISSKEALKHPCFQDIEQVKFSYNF

Lysine--tRNA ligase, sequence (Q8IDJ8 whole entry): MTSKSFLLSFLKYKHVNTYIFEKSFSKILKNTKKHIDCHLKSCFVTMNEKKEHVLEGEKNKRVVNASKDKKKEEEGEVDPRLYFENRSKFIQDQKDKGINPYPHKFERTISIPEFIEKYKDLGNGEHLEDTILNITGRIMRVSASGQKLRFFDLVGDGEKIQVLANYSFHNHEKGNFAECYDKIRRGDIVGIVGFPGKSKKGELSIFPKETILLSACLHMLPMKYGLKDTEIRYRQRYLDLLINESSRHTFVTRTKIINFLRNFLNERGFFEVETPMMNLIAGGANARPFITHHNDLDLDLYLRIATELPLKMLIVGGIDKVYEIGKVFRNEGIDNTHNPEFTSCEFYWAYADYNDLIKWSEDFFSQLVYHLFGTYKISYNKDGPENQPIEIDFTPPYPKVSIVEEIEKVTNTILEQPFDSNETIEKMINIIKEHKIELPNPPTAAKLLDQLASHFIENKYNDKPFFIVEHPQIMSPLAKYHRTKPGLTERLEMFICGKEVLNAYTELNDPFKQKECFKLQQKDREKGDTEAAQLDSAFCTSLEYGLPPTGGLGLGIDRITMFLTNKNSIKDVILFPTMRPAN

| SMILES | IC50 (Lysine--tRNA ligase) | IC50 (Proline--tRNA ligase) | IC50 [1] | IC50 [2] | IC50 [3] | IC50 [4] | IC50 [5] |
| --- | --- | --- | --- | --- | --- | --- | --- |
| Cc1cccc(-n2ncc3c(O)nc(-n4nc(C)cc4NC(=O)c4cc5ccccc5o4)nc32)c1 | > 2.5 µM | > 2.5 µM | > 1 µM | > 1 µM | > 1 µM | > 1 µM | > 1 µM |
| Oc1ccccc1CN1CCC2(CCCN(Cc3ccccc3F)C2)C1 (configuration not stated) | > 2.5 µM | > 2.5 µM | > 1 µM | > 1 µM | > 1 µM | > 1 µM | > 1 µM |
| Cc1ccc(-c2cc(C(=O)Nc3ccc(S(=O)(=O)N4CCCCC4)cc3)[nH]n2)c(O)c1 | > 2.5 µM | > 2.5 µM | > 1 µM | > 1 µM | > 1 µM | > 1 µM | > 1 µM |
| Cc1[nH]c(-c2ccc(F)cc2)cc1C(=O)NC1CCN(Cc2ccccc2)CC1 | > 2.5 µM | > 2.5 µM | > 1 µM | > 1 µM | > 1 µM | > 1 µM | > 1 µM |
| O=C(NC1CCCC1)c1ccc(N2CCC(NCc3cccc(C(F)(F)F)c3)CC2)cc1 | > 2.5 µM | > 2.5 µM | > 1 µM | > 1 µM | > 1 µM | > 1 µM | > 1 µM |
| CCOc1cc(Br)c(C(C)NC(=O)c2cccc(OC)c2)cc1OCC (configuration not stated) | > 2.5 µM | > 2.5 µM | > 1 µM | > 1 µM | > 1 µM | > 1 µM | > 1 µM |
| CCN(CC)CCn1c(=N)n(CC(O)c2ccc(Cl)c(Cl)c2)c2ccccc21 (configuration not stated) | > 2.5 µM | > 2.5 µM | > 1 µM | > 1 µM | > 1 µM | > 1 µM | > 1 µM |
| Cc1ccc(CSCc2ccc(C(=O)NC3CC3)o2)cc1 | > 2.5 µM | > 2.5 µM | > 1 µM | > 1 µM | > 1 µM | > 1 µM | > 1 µM |
| CN1CCN(c2c3c(c(C#N)c4nc5ccccc5n24)CCC3)CC1 | > 2.5 µM | > 2.5 µM | > 1 µM | > 1 µM | > 1 µM | > 1 µM | > 1 µM |
| CC(=O)NCCc1nc2ccccc2n1Cc1ccc(C(C)C)cc1 | > 2.5 µM | > 2.5 µM | > 1 µM | > 1 µM | > 1 µM | > 1 µM | > 1 µM |
| CCN(CC)CCNc1ncnc2c1[nH]c1ccc(Br)cc12 | > 2.5 µM | > 2.5 µM | > 1 µM | > 1 µM | > 1 µM | > 1 µM | > 1 µM |
| CC(C)(C)C(=O)Nc1ccc(C(=O)Nc2cccc(-c3nc4ccccc4[nH]3)c2)cc1 | > 2.5 µM | > 2.5 µM | > 1 µM | > 1 µM | > 1 µM | > 1 µM | > 1 µM |
| COc1ccc(-c2nonc2NC(=O)c2cccc(C)c2)cc1OC | > 2.5 µM | > 2.5 µM | > 1 µM | > 1 µM | > 1 µM | > 1 µM | > 1 µM |
| O=C(Nc1ccc(N2CCN(Cc3ccccc3)CC2)cc1)c1cccs1 | > 2.5 µM | > 2.5 µM | > 1 µM | > 1 µM | > 1 µM | > 1 µM | > 1 µM |
| O=C(Nc1ccc(N2CCCCC2)c(Cl)c1)c1ccc(Br)o1 | > 2.5 µM | > 2.5 µM | > 1 µM | > 1 µM | > 1 µM | > 1 µM | > 1 µM |
| CC(C)(C)c1ccc(C(=O)Nc2nc3ccccc3s2)cc1 | > 2.5 µM | > 2.5 µM | > 1 µM | > 1 µM | > 1 µM | > 1 µM | > 1 µM |
| COc1ccc(C2N(C)c3ccccc3N2C)cc1 | > 2.5 µM | > 2.5 µM | > 1 µM | > 1 µM | > 1 µM | > 1 µM | > 1 µM |
| CC(C)OCc1cc(CN2CCN(c3cccc(Cl)c3)CC2)c(O)c2ncccc12 | > 2.5 µM | > 2.5 µM | > 1 µM | > 1 µM | > 1 µM | > 1 µM | > 1 µM |
| CCCN(CCC)CCCNC(=O)c1cc2c(-c3ccc(OC)c(OC)c3)nn(C)c2s1 | > 2.5 µM | > 2.5 µM | > 1 µM | > 1 µM | > 1 µM | > 1 µM | > 1 µM |
| O=C(NCC1Cc2cccc(-c3ccncc3)c2O1)c1csc2c1CCCC2 (configuration not stated) | > 2.5 µM | > 2.5 µM | > 1 µM | > 1 µM | > 1 µM | > 1 µM | > 1 µM |
| C=CCc1c(C)nc2ccccc2c1O | > 2.5 µM | > 2.5 µM | > 1 µM | > 1 µM | > 1 µM | > 1 µM | > 1 µM |
